Laboratory results from patent publication EP0594877A1, “Imidazo(1,2-c)quinazoline derivates as antihyper tensives and anti dysurics” (NATIONAL SCIENCE COUNCIL, priority 1992, dated 1994).

Key:
[1] = Antihypertensive activity: blood pressure and heart rate in anesthetized cats after i.v. administration; assay type: in vivo; details: for MBP (mm Hg) 1 hour / MBP (mm Hg) 2 hour: anesthetized cats
Method: (§1) Adult cats of either sex, 2-3 Kg, anesthetized with pentobarbital sodium (30 mg/Kg i.p.) were used. The trachea was intubated to provide artificial respiration with air by means of a Harvard respirator (respiration rate= 16-20/min and colume= 40-50 ml/stroke). Both femoral artery and vein were cannulated with PE 150 to monitor blood pressure and for drug administration respectively. Body temperature was maintained at 37.5°C with a heating pad and monitored with a rectal thermometer. Blood pressure was measured with a Statham P23D pressure transducer via a polyethylene cannula conducted to a right femoral artery. Heart rate was measured through a Grass Model 7B tachograph preamplifier triggered by the pulses of arterial blood pressure. All data were recorded on a Grass Model 7B polygraph.
The solvent (50% DM50) has no significant action on B.P. or H.R. However, Example 4 compound (250 µg/Kg) decreases B.P. immediately and reaches maximally at 5-10 minutes, and the duration of action is about 4 hours.

α₁-Adrenergic receptor = α₁-Adrenergic receptor binding assay with [³H] prazocin, rat brain cortex membranes; details: 0.2 nM [³H] prazocin, pH 7.4
Method: (§2) After the removal of nuclei by centrifugation at 1000 x g for 10 min, P₂ membranes were pelleted by centrifuging the supernatant at 22,000 x g for 20 min. After two periods of centrifugation at 22,000 x g and resuspension in fresh buffer, the membrane suspension (about 2 mg/ml protein) was ready for use.
(§3) α₁-Adrenergic receptor binding assays (in triplicate) were carried out with 0.2 nM [³H] prazocin in a final volume of 1.0 ml of Tris buffer at pH 7.4 for 30 min at room temperature, using 10 µM phentolamine to determine non-specific binding. The concentrations of synthetic compounds for competition binding were in the range of 0.1 - 200 nM. α₂-adrenergic receptor binding assays (in triplicate) were carried out with 1 nM [³H] clonidine in the presence of 10 mM MgCl₂ and in a final volume of 1.0 ml of Tris buffer at pH 7.4 for 30 min at room temperature, using 10 µM clonidine to determine non-specific binding. The concentrations of synthetic compounds for competition binding were in the range of 0.1-100 µM. After binding had reached equilibrium, incubations were terminated by collecting the membranes on whatman GF/B filters; the filters were washed twice with 5 ml of 50 mM Tris buffer (pH 7.4) at 4°C. The amount of membrane protein used in each assay was in the range of 300-400 µg, as determined by the method of Lowry et al..

α₂-adrenergic receptor = α₂-adrenergic receptor binding assay with [³H] clonidine, rat brain cortex membranes; details: for Ki: 1 nM [³H] clonidine, 10 mM MgCl₂, rat brain cortex membranes, pH 7.4; for α₂/α₁ ratio: ratio of α₂ Ki to α₁ Ki
Method: as §2, §3

[2] = Antagonistic effect on blood pressure responses induced by phenylephrine or serotonin in cats; assay type: in vivo; details: cats pretreated with dose of ED₅₀ (0.25mg/kg)
Method: • Fig. 1 is a does-response plot of 2-(4-phenyl-1-piperazinyl)methyl-2,3-dihydroimidazo[1,2-c]-quinazoline-5(6H)-one (Example 4) on blood pressure in 5 cats; • Fig. 2 is a time-course of various doeses of Example 4 compound on blood pressure in cats; and • Fig. 3 is a plot showing antagonistic effect of Example 4 compound (0.25mg/kg) on blood pressures induced by phenylephrine (0.015mg/kg) or serotonin (0.020mg/kg).
as §1

[3] = cats, i.v., 10 µg to 1 mg/kg, dose-dependent

Ki (α₁-Adrenergic receptor) [nM] | Ki (α₂-adrenergic receptor) [nM] | α₂/α₁ ratio (α₂-adrenergic receptor) | Compound | MBP (mm Hg) 1 hour ([1]; dose 4.0 mg/Kg) [mm Hg] | other results
– | – | – | 2-(4-phenyl-1-piperazinyl)methyl-2,3-dihydroimidazo[1,2-c]quinazolin-5(6H)-thione [Example 20] | -33.9±9.7 | MBP (mm Hg) 2 hour ([1]; dose 4.0 mg/Kg): -22.5±7.6 mm Hg
14.4 | 391 | 27 | 2-[4-(4-fluorobenzyl)-1-piperazinyl]methyl-2,3-dihydroimidazo[1,2-c]quinazolin-5(6H)-one [Example 11] | – | –
2.01 ± 0.09 | – | – | O=C1Nc2ccccc2C2=NC(CN3CCN(c4ccccc4)CC3)CN12 (centres unmarked) [Example 4, 2-(4-phenyl-1-piperazinyl)methyl-2,3-dihydroimidazo[1,2-c]quinazolin-5(6H)-one] | – | ED50 ([1]; Felis catus, iv, cats, i.v., read-out: ED₅₀ of lowing blood pressure): 0.25 mg/kg; time at which decrease of B.P. reaches maximally ([1]; anesthetized cat, 250 µg/Kg i.v.): 5 to 10 min; MBP (mm Hg) 1 hour ([1]; dose 0.125 mg/Kg): -12.5±4.6 mm Hg; MBP (mm Hg) 1 hour ([1]; dose 0.25 mg/Kg): -23.1±2.7 mm Hg; MBP (mm Hg) 2 hour ([1]; dose 0.25 mg/Kg): -8.75±5.7 mm Hg; MBP (mm Hg) 1 hour ([1]; dose 0.5 mg/Kg): -49.3±1.5 mm Hg; MBP (mm Hg) 2 hour ([1]; dose 0.5 mg/Kg): -32.5±2.5 mm Hg; MBP (mm Hg) 1 hour ([1]; dose 1.0 mg/Kg): -57.5±2.5 mm Hg; MBP (mm Hg) 2 hour ([1]; dose 1.0 mg/Kg): -44.5±0.5 mm Hg; changes in heart rate (HR) [1, 3]: biphasically (initially increases, then decreases); effect on SBP and DBP [1, 3]: decreases both SBP and DBP; blood pressure response to PE ([2]; phenylephrine 0.015mg/kg, p<0.02): significantly antagonizes; blood pressure response to 5-HT ([2]; serotonin 0.020mg/kg, p>0.05): no effect
> 100 | – | – | O=C1Nc2ccccc2C2=NC(CN3CCN(Cc4ccc5c(c4)OCO5)CC3)CN12 (centres unmarked) [Example 6, 2-[4-piperonyl-1-piperazinyl]methyl-2,3-dihydroimidazo[1,2-c]quinazolin-5(6H)-one] | – | –
1.3 ± 0.5 | 3450 ± 329 | 2654 | COc1ccccc1N1CCN(CC2CN3C(=O)Nc4ccccc4C3=N2)CC1 (centres unmarked) [Example 7, 2-[4-(2-methoxy)phenyl-1-piperazinyl]methyl-2,3-dihydroimidazo[1,2-c]quinazolin-5(6H)-one] | – | MBP (mm Hg) 1 hour ([1]; dose 0.25 mg/Kg): -17.5 mm Hg; MBP (mm Hg) 1 hour ([1]; dose 0.5 mg/Kg): -20 mm Hg; MBP (mm Hg) 2 hour ([1]; dose 0.5 mg/Kg): -18.8 mm Hg; MBP (mm Hg) 1 hour ([1]; dose 1.0 mg/Kg): -30 mm Hg; MBP (mm Hg) 2 hour ([1]; dose 1.0 mg/Kg): -15 mm Hg
850 | > 10000 | >11 | O=C1Nc2ccccc2C2=NC(CN3CCN(Cc4ccccc4)CC3)CN12 (centres unmarked) [Example 8, 2-[4-Benzyl-1-piperazinyl]methyl-2,3-dihydroimidazo[1,2-c]quinazolin-5(6H)-one] | -43.7±5.2 | –
35.8 ± 8.6 | 5011 ± 11 | 140 | O=C1Nc2ccccc2C2=NC(CN3CCC(Cc4ccccc4)CC3)CN12 (centres unmarked) [Example 9, 2-[4-Benzyl-1-piperidinyl]methyl-2,3-dihydroimidazo[1,2-c]quinazolin-5(6H)-one] | -30.6±4.7 | –
95.9 ± 5.2 | – | – | O=C1Nc2ccccc2C2=NC(CN3CCN(c4ccccn4)CC3)CN12 (centres unmarked) [Example 10, 2-[4-(2-Pyridinyl)-1-piperazinyl]methyl-2,3-dihydroimidazo[1,2-c]quinazolin-5(6H)-one] | – | –
586 ± 9 | – | – | O=C1Nc2ccccc2C2=NC(CNC3CCN(Cc4ccccc4)CC3)CN12 (centres unmarked) [Example 12, 2-[1-benzylpiperidin-4-yl]aminomethyl-2,3-dihydroimidazo[1,2-c]quinazolin-5(6H)-one] | – | –
– | – | – | O=C(c1ccc(F)cc1)C1CCN(CC2CN3C(=O)Nc4ccccc4C3=N2)CC1 (centres unmarked) [Example 15, 2-[1-(4-p-fluorobenzoyl)piperidinyl]methyl-2,3-dihydroimidazo[1,2-c]quinazolin-5(6H)-one] | -30 ±7.3 | MBP (mm Hg) 2 hour ([1]; dose 4.0 mg/Kg): -13.8±8.9 mm Hg
> 100 | – | – | COc1ccc(N2CCN(CC3CN4C(=O)Nc5ccccc5C4=N3)CC2)cc1 (centres unmarked) [Example 16, 2-[1-(4-methoxyphenyl)piperazinyl]methyl-2,3-dihydroimidazo[1,2-c]quinazolin-5(6H)-one] | – | –
– | – | – | COc1cccc(N2CCN(CC3CN4C(=O)Nc5ccccc5C4=N3)CC2)c1 (centres unmarked) [Example 17, 2-[1-(3-methoxyphenyl)piperazinyl]methyl-2,3-dihydroimidazo[1,2-c]quinazolin-5(6H)-one] | -20.3±10.2 | MBP (mm Hg) 2 hour ([1]; dose 4.0 mg/Kg): -8.5±2.6 mm Hg
30 ± 10 | 1690 | 54 | COc1cc2c(cc1OC)C1=NC(CN3CCN(c4ccccc4)CC3)CN1C(=O)N2 (centres unmarked) [Example 25, 2-(4-phenyl-1-piperazinyl)methyl-8,9-dimethoxy-2,3-dihydro-imidazo[1,2-c]quinazolin-5(6H)-one] | -38.2±5.7 | MBP (mm Hg) 2 hour ([1]; dose 4.0 mg/Kg): -12.6±5.0 mm Hg
1.1 ± 0.05 | 3170 ± 396 | 3015 | O=C1Nc2ccccc2C2=NC(CN3CCN(c4ccccc4Cl)CC3)CN12 (centres unmarked) [Example 26, 2-[4-(2-chlorophenyl)-1-piperazinyl]methyl-2,3-dihydroimidazo[1,2-c]quinazolin-5(6H)-one] | – | MBP (mm Hg) 1 hour ([1]; dose 0.5 mg/Kg): -25.5±3.4 mm Hg; MBP (mm Hg) 2 hour ([1]; dose 0.5 mg/Kg): -5.7±1.5 mm Hg; MBP (mm Hg) 1 hour ([1]; dose 1.0 mg/Kg): -40.7±9.7 mm Hg; MBP (mm Hg) 2 hour ([1]; dose 1.0 mg/Kg): -12.6±3.4 mm Hg
0.68 ± 0.26 | – | – | CN1C(=O)N2CC(CN3CCN(c4ccccc4Cl)CC3)N=C2c2ccccc21 (centres unmarked) [Example 28, 2-[4-(2-chlorophenyl)-1-piperazinyl]methyl-6-methyl-2,3-dihydroimidazo[1,2-c]quinazolin-5-one] | – | –
